Among the data in EP0694535A1, “Non-peptidyl tachykinin receptor antagonists” (ELI LILLY AND COMPANY, priority 1994, dated 1996) are inhibition and IC50 values, retold here.

Usually inhibition stands for the percentage by which the read-out fell short of the control. The pIC50 is the IC50 on a negative log10 scale, so that one unit is a factor of ten.

pIC50: −log10 of the molar value.

The target in one test is T1, NK-1 receptor (Homo sapiens, UniProt P25103).
T1 construct: an aliquot of IM9 cells; endogenous in cells; host or cells: IM9 cells (whole cells)
T1 sequence (P25103 whole entry): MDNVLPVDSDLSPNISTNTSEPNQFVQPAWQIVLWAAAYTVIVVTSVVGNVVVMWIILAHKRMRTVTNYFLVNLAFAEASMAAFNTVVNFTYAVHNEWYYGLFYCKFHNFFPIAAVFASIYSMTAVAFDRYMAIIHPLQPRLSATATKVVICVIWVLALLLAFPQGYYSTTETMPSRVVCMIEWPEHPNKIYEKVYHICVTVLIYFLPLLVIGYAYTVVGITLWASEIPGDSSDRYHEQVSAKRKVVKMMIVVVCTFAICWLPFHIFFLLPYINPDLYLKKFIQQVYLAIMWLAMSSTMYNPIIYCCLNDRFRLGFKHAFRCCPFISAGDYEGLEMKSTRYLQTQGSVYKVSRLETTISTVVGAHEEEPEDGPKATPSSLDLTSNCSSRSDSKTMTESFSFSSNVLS
Briefly: NK-1 Receptor Binding Assay (competition with labeled substance P on IM9 cells). The note with it: at 10μM, inhibition of substance P binding to the NK-1 receptor, read-out: Percent Inhibition. As for the experimental part:
Radioreceptor binding assays were performed using a derivative of a previously published protocol. D.G. Payan, et al., Journal of Immunology, 133:3260-3265 (1984). In this assay an aliquot of IM9 cells (1 x 10⁶ cells/tube in […] medium supplemented with 10% fetal calf serum) was incubated with 20 pM […] substance P in the presence of increasing competitor concentrations for 45 minutes at 4°C.
The IM9 cell line is a well-characterized cell line which is readily available to the public. See. e.g., Annals of the New York Academy of Science, 190: 221-234 (1972); Nature (London), 251:443-444 (1974); Proceedings of the National Academy of Sciences (USA), 71:84-88 (1974). These cells were routinely cultured in RPMI 1640 supplemented with 50 µg/ml gentamicin sulfate and 10% fetal calf serum.
The reaction was terminated by filtration through a glass fiber filter harvesting system using filters previously soaked for 20 minutes in 0.1% polyethylenimine. Specific binding of labeled substance P was determined in the presence of 20 nM unlabeled ligand.
Column 1 provides the example number of the test antagonist compound. The next columns detail the substitution patterns of the test compound.
`Cc1cccc(-c2nc3ccccc3n2Cc2c(Cl)cccc2Cl)c1` [Example 62, 1-(2,6-Dichlorobenzyl)-2-(3-methylphenyl)benzimidazole]: the inhibition at 10 µM is 31%.

The same test, now with this note: concentration which inhibits fifty percent of the binding of substance P, 20 pM labeled substance P, 45 minutes at 4°C.
Take `COc1cc(-c2nc3ccc(OCCCN4CCCCC4)cc3n2Cc2ccccc2)cc(OC)c1OC` [Example 74, 1-benzyl-2-(3,4,5-trimethoxyphenyl)-6-[3-(1-piperidinyl)propoxy]benzimidazole]: the pIC50 is 7.07.
On to `Cc1cccc(-c2nc3ccc(OCCN4CCCCC4)cc3n2Cc2ccccc2)c1` [Example 85, 1-benzyl-2-(3-methylphenyl)-6-[2-(1-piperidinyl)ethoxy]benzimidazole], for which the pIC50 is 6.12.

A further test has as its target T2, human NK-2 receptor (Homo sapiens, UniProt P21452).
T2 construct: expressed in transfected cells; host or cells: CHO-hNK-2R cells (CHO-derived), membrane preparation
T2 sequence (P21452 1-398): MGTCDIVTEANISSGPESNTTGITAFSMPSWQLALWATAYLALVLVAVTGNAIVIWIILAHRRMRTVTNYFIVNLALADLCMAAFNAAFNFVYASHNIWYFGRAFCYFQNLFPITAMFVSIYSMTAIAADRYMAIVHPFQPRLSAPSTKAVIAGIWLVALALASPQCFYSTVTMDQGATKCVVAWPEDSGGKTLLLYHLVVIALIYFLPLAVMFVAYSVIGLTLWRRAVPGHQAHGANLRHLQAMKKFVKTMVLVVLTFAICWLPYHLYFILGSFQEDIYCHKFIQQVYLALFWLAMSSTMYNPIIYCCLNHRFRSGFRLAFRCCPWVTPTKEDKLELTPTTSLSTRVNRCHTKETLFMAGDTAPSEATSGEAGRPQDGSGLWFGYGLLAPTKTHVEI
Description: NK-2 Receptor Binding Assay (CHO-hNK-2R membranes, iodohistidyl-neurokinin A). The following applies: inhibition of neurokinin A binding at ten micromolar, read-out: Percent Inhibition @ 10 μM. How it is done: The CHO-hNK-2R cells, a CHO-derived cell line transformed with the human NK-2 receptor, expressing about 400,000 such receptors per cell, were grown in 75 cm flasks or roller bottles in minimal essential medium (alpha modification) with 10% fetal bovine serum. The gene sequence of the human NK-2 receptor is given in N.P. Gerard, et al., Journal of Biological Chemistry, 265:20455-20462 (1990).
For preparation of membranes, 30 confluent roller bottle cultures were dissociated by washing each roller bottle with 10 ml of Dulbecco's phosphate buffered saline (PBS) without calcium and magnesium, followed by addition of 10 ml of enzyme-free cell dissociation solution (PBS-based, from Specialty Media, Inc.). After an additional 15 minutes, the dissociated cells were pooled and centrifuged at 1,000 RPM for 10 minutes in a clinical centrifuge. Membranes were prepared by homogenization of the cell pellets in 300 ml 50 mM Tris buffer, pH 7.4 with a Tekmar® homogenizer for 10-15 seconds, followed by centrifugation at 12,000 RPM (20,000 x g) for 30 minutes using a Beckman JA-14® rotor. The pellets were washed once using the above procedure. and the final pellets were resuspended in 100-120 ml 50 mM Tris buffer, pH 7.4, and 4 ml aliquots stored frozen at -70 °C. The protein concentration of this preparation was 2 mg/ml.
For the receptor binding assay, one 4-ml aliquot of the CHO-hNK-2R membrane preparation was suspended in 40 ml of assay buffer containing 50 mM Tris, pH 7.4, 3 mM manganese chloride, 0.02% bovine serum albumin (BSA) and 4 µg/ml chymostatin. A 200 µl volume of the homogenate (40 µg protein) was used per sample. The radioactive ligand was [[…]]iodohistidyl-neurokinin A (New England Nuclear, NEX-252), 2200 Ci/mmol. The ligand was prepared in assay buffer at 20 nCi per 100 µl; the final concentration in the assay was 20 pM. Non-specific binding was determined using 1 µM eledoisin. Ten concentrations of eledoisin from 0.1 to 1000 nM were used for a standard concentration-response curve.
All samples and standards were added to the incubation in 10 µl dimethylsulfoxide (DMSO) for screening (single dose) or in 5 µl DMSO for IC₅₀ determinations. The order of additions for incubation was 190 or 195 µl assay buffer, 200 µl homogenate, 10 or 5 µl sample in DMSO, 100 µl radioactive ligand. The samples were incubated 1 hr at room temperature and then filtered on a cell harvester through filters which had been presoaked for two hours in 50 mM Tris buffer, pH 7.7, containing 0.5% BSA. The filter was washed 3 times with approximately 3 ml of cold 50 mM Tris buffer, pH 7.7. The filter circles were then punched into 12 x 75 mm polystyrene tubes and counted in a gamma counter.
Table II, infra, provides a representative sample of the effectiveness as NK-2 receptor antagonists of many of the compounds of Formula I. The first column provides the Example number of the compound tested. The second column provides either the percent inhibition of neurokinin A binding when the compound is present in a ten micromolar concentration or the amount of compound (in micromolar amounts) necessary to inhibit fifty percent of the binding of neurokinin A. Those values which represent IC₅₀ values are designated by parentheses.
With `Cc1cccc(-c2nc3ccccc3n2Cc2c(Cl)cccc2Cl)c1` [Example 62, 1-(2,6-Dichlorobenzyl)-2-(3-methylphenyl)benzimidazole], the inhibition at 10 µM came out at 23.1%.
`COc1cc(-c2nc3ccc(OCCCN4CCCCC4)cc3n2Cc2ccccc2)cc(OC)c1OC` [Example 74, 1-benzyl-2-(3,4,5-trimethoxyphenyl)-6-[3-(1-piperidinyl)propoxy]benzimidazole]: the inhibition at 10 µM was 78%.
Still for that read-out and setting: for `Cc1cccc(-c2nc3ccc(OCCCCl)cc3n2Cc2ccccc2)c1` [Example 97, 1-benzyl-2-(3-methylphenyl)-6-(3-chloropropoxy)-benzimidazole] the value was 64.4%.
As to `Cc1cccc(-c2nc3ccc(OCCN4CCCCC4)cc3n2Cc2ccccc2)c1` [Example 85, 1-benzyl-2-(3-methylphenyl)-6-[2-(1-piperidinyl)ethoxy]benzimidazole], the inhibition at 10 µM was determined as 73.1%.
For the compound `Cc1cccc(-c2nc3ccc(OCCN4CCCCCC4)cc3n2Cc2ccccc2)c1` [Example 92, 1-benzyl-2-(3-methylphenyl)-6-[2-(hexamethyleneimin-1-yl)ethoxy]benzimidazole], the inhibition at 10 µM amounted to 82.5%.
For the compound `Cc1cccc(-c2nc3ccc(OCCN(C)C)cc3n2Cc2ccccc2)c1` [Example 88, 1-benzyl-2-(3-methylphenyl)-6-[2-(N,N-dimethylamino)ethoxy]benzimidazole], the inhibition at 10 µM was 31.6%.
Consider `Cc1cccc(-c2nc3ccc(OCCN(Cc4ccccc4)Cc4ccccc4)cc3n2Cc2ccccc2)c1` [Example 89, 1-benzyl-2-(3-methylphenyl)-6-[2-(N,N-dibenzylamino)ethoxy]benzimidazole], for which the inhibition at 10 µM stood at 24.5%.
Regarding `COc1cc(-c2nc3ccc(O)cc3n2Cc2ccccc2Br)cc(OC)c1OC` [Example 114, 1-(2-bromobenzyl)-2-(3,4,5-trimethoxyphenyl)-6-hydroxybenzimidazole], the inhibition at 10 µM is 57.4%.
For `Cc1cccc(-c2nc3ccc(OCCN(C(C)C)C(C)C)cc3n2Cc2ccccc2)c1` [Example 91, 1-benzyl-2-(3-methylphenyl)-6-[2-(N,N-isopropylamino)ethoxy]benzimidazole], the inhibition at 10 µM worked out at 60.7%.
With `Cc1cccc(-c2nc3ccc(OCCN4CCOCC4)cc3n2Cc2ccccc2)c1` [Example 87, 1-benzyl-2-(3-methylphenyl)-6-[2-(4-morpholinyl)ethoxy]benzimidazole], the inhibition at 10 µM was found to be 81.9%.
On the same count and under the same terms, for `Cc1cccc(-c2nc3ccc(OCCCN(C)C)cc3n2Cc2ccccc2)c1` [Example 94, 1-benzyl-2-(3-methylphenyl)-6-[3-(N,N-dimethylamino)propoxy]benzimidazole] the value was 38.4%; for `Cc1cccc(-c2nc3ccc(OCC(C)N(C)C)cc3n2Cc2ccccc2)c1` (stereo not drawn) [Example 96, 1-benzyl-2-(3-methylphenyl)-6-[2-(N,N-dimethylamino)propoxy]-benzimidazole], 34%; for `CCN(CC)CCOc1ccc2nc(-c3cccc(C)c3)n(Cc3ccccc3)c2c1` [Example 93, 1-benzyl-2-(3-methylphenyl)-6-[2-(N,N-diethylamino)ethoxy]benzimidazole], 42%.
The same measure, in the same setting: the same measure for `CCN(CCOc1ccc2nc(-c3cccc(C)c3)n(Cc3ccccc3)c2c1)c1ccccc1` [Example 90, 1-benzyl-2-(3-methylphenyl)-6-[2-(N-phenyl-N-ethylamino)ethoxy]benzimidazole]: 34%; for `Cc1cccc(-c2nc3ccc(OCCCN4CCCCC4)cc3n2Cc2ccccc2)c1` [Example 95, 1-benzyl-2-(3-methylphenyl)-6-[3-(piperdin-1-yl)propoxy]benzimidazole]: 80.4%; for `Cc1cccc(-c2nc3ccc(OCCN4CCCC4)cc3n2Cc2ccccc2)c1` [Example 86, 1-benzyl-2-(3-methylphenyl)-6-[2-(1-pyrrolidinyl)ethoxy]benzimidazole]: 48.5%.
On the same count and under the same terms, the same measure for `COc1cc(-c2nc3ccc(O)cc3n2Cc2ccccc2C(F)(F)F)cc(OC)c1OC` [Example 104, 1-(2-trifluoromethylbenzyl)-2-(3,4,5-trimethoxyphenyl)-6-hydroxybenzimidazole]: 39.3%.
On to `Cc1cccc(-c2nc3ccc(O)cc3n2Cc2ccccc2C(F)(F)F)c1` [Example 120, 1-(2-trifluoromethylbenzyl)-2-(3-methylphenyl)-6-hydroxybenzimidazole], for which the inhibition at 10 µM worked out at 55.9%.

The same test, now with this note: values in parentheses, amount necessary to inhibit fifty percent of the binding of neurokinin A.
As to `Cc1cccc(-c2nc3ccc(OCCCN4CCCCCC4)cc3n2Cc2ccccc2)c1` [Example 101, 1-benzyl-2-(3-methylphenyl)-6-[3-(hexamethyleneimin-1-yl)propoxy)benzimidazole], the negative-log IC50 (pIC50) was 5.98.
Same read-out and setting: for `Cc1cccc(-c2nc3ccc(OCCCl)cc3n2Cc2ccccc2)c1` [Example 98, 1-benzyl-2-(3-methylphenyl)-6-(2-chloroethoxy)-benzimidazole] the value was 5.14; for `COc1cc(-c2nc3ccc(OCCN4CCCCC4)cc3n2Cc2ccccc2Br)cc(OC)c1OC` [Example 115, 1-(2-bromobenzyl)-2-(3,4,5-trimethoxyphenyl)-6-[2-(piperidin-1-yl)ethoxy]benzimidazole], 5.37.
The same measure, in the same setting: for `Cc1cccc(-c2nc3ccc(OCCCN4CCCC4)cc3n2Cc2ccccc2)c1` [Example 100, 1-benzyl-2-(3-methylphenyl)-6-[3-(pyrrolidin-1-yl)propoxy)benzimidazole] the value was 5.17; for `Cc1cccc(-c2nc3ccc(OCCCN4CCOCC4)cc3n2Cc2ccccc2)c1` [Example 99, 1-benzyl-2-(3-methylphenyl)-6-[3-(morpholin-4-yl)propoxy)benzimidazole], 5.51; for `COc1cc(-c2nc3ccc(OCCN4CCCCC4)cc3n2Cc2ccccc2C(F)(F)F)cc(OC)c1OC` [Example 105, 1-(2-trifluoromethylbenzyl)-2-(3,4,5-trimethoxyphenyl)-6-[2-(piperidin-1-yl)ethoxy]benzimidazole], 5.29.
